Test results from the NIST ThermoML archive (doi:10.1016/j.jct.2014.01.012).

Assay: xn = mol fraction of the nth substance listed
Conditions: 101 kPa, Liquid; for speed of sound: Sing-around technique in a fixed-path interferometer; for mass density: Vibrating tube method

CCCCCCn1cc[n+](C)c1.F[P-](F)(F)(F)(F)F [1-hexyl-3-methylimidazolium hexafluorophosphate] + CCCCOC(C)=O
Conditions	mass density [kg/m3]	speed of sound [m/s]
293.15 K, x1 = 0.0956	951.75	1232
293.15 K, x1 = 0.1919	1012.58	1254.6
293.15 K, x1 = 0.273	1056.82	1279.1
293.15 K, x1 = 0.3698	1103.12	1306.9
293.15 K, x1 = 0.4639	1141.87	1329.4
293.15 K, x1 = 0.5701	1179.57	1354.2
293.15 K, x1 = 0.6787	1213.07	1375.9
293.15 K, x1 = 0.7746	1239.19	1395
293.15 K, x1 = 0.8707	1262.73	1412
293.15 K, x1 = 0.9354	1277.66	1425
293.15 K, x1 = 1	1291.38	1436.9
298.15 K, x1 = 0.0956	947.32	1211.1
298.15 K, x1 = 0.1919	1008.36	1234
298.15 K, x1 = 0.273	1052.6	1258.9
298.15 K, x1 = 0.3698	1098.76	1286.7
298.15 K, x1 = 0.4639	1137.51	1309.5
298.15 K, x1 = 0.5701	1175.41	1334.8
298.15 K, x1 = 0.6787	1209.24	1357.2
298.15 K, x1 = 0.7746	1235.56	1377.6
298.15 K, x1 = 0.8707	1259.27	1395.9
298.15 K, x1 = 0.9354	1273.93	1409.2
298.15 K, x1 = 1	1287.34	1423.5
303.15 K, x1 = 0.0956	942.923	1190.1
303.15 K, x1 = 0.1919	1004.08	1212.6
303.15 K, x1 = 0.273	1048.36	1237.4
303.15 K, x1 = 0.3698	1094.3	1265.2
303.15 K, x1 = 0.4639	1133.2	1289.9
303.15 K, x1 = 0.5701	1171.25	1317.5
303.15 K, x1 = 0.6787	1205.24	1342.6
303.15 K, x1 = 0.7746	1231.69	1360.1
303.15 K, x1 = 0.8707	1255.4	1382.6
303.15 K, x1 = 0.9354	1270.13	1397.1
303.15 K, x1 = 1	1283.29	1410.6
308.15 K, x1 = 0.0956	938.4	1170.2
308.15 K, x1 = 0.1919	999.626	1195.2
308.15 K, x1 = 0.273	1043.86	1223.8
308.15 K, x1 = 0.3698	1089.96	1252.4
308.15 K, x1 = 0.4639	1128.94	1282.6
308.15 K, x1 = 0.5701	1167.43	1309.4
308.15 K, x1 = 0.6787	1201.36	1335.2
308.15 K, x1 = 0.7746	1227.89	1354.9
308.15 K, x1 = 0.8707	1251.38	1369.7
308.15 K, x1 = 0.9354	1265.98	1384.4
308.15 K, x1 = 1	1279.4	1398.2
313.15 K, x1 = 0.0956	933.877	1150.1
313.15 K, x1 = 0.1919	995.525	1177
313.15 K, x1 = 0.273	1039.84	1206.8
313.15 K, x1 = 0.3698	1085.95	1236.5
313.15 K, x1 = 0.4639	1124.72	1267.5
313.15 K, x1 = 0.5701	1163.39	1295.4
313.15 K, x1 = 0.6787	1197.76	1321.8
313.15 K, x1 = 0.7746	1224.59	1341.9
313.15 K, x1 = 0.8707	1248.25	1356.9
313.15 K, x1 = 0.9354	1262.68	1372
313.15 K, x1 = 1	1275.48	1386
318.15 K, x1 = 0.0956	929.385	1130.3
318.15 K, x1 = 0.1919	991.164	1158.8
318.15 K, x1 = 0.273	1035.44	1189.8
318.15 K, x1 = 0.3698	1081.67	1220.7
318.15 K, x1 = 0.4639	1120.61	1252.5
318.15 K, x1 = 0.5701	1159.18	1280.7
318.15 K, x1 = 0.6787	1193.95	1308.5
318.15 K, x1 = 0.7746	1221	1329
318.15 K, x1 = 0.8707	1244.79	1344.4
318.15 K, x1 = 0.9354	1258.89	1359.8
318.15 K, x1 = 1	1271.56	1374.2
323.15 K, x1 = 0.0956	924.824	1110.4
323.15 K, x1 = 0.1919	986.823	1140.8
323.15 K, x1 = 0.273	1031.16	1172.9
323.15 K, x1 = 0.3698	1077.6	1205.1
323.15 K, x1 = 0.4639	1116.43	1237.1
323.15 K, x1 = 0.5701	1155.28	1267
323.15 K, x1 = 0.6787	1190.27	1295.7
323.15 K, x1 = 0.7746	1217.39	1316.4
323.15 K, x1 = 0.8707	1241.1	1332.1
323.15 K, x1 = 0.9354	1255.1	1347.8
323.15 K, x1 = 1	1267.63	1362.5
